{
  "source": "patent US20240382480A1",
  "about": "“PHARMACEUTICAL COMPOSITION CONTAINING JAK3/JAK1/TBK1 SELECTIVE INHIBITOR AND MEDICAL USE THEREOF” (SHENZHEN CHIPSCREEN BIOSCIENCES CO., LTD., priority 2021, published 2024)",
  "assay_type_in_all_cases": "in vivo",
  "key": {"[1]": {"test_system": "normal animals", "assay": "Spleen weight in normal animals", "conditions": "no dose or method printed"}, "[2]": {"test_system": "C57BL/6J mice with alopecia areata", "assay": "Alopecia areata mouse model, oral gavage", "conditions": "80 mg/kg twice a day oral gavage for 23 d", "procedure": "Drug preparation: appropriate amount of powder of test sample was weighed accurately and put in a sample preparation tube, then add purified water was added and sonification was performed until the sample was completely dissolved. A concentration of 8 mg/ml (based on active ingredient) was prepared, and it was administered within 15 minutes after preparation.\nExperimental animals: 16 C57BL/6J mice with alopecia areata, female, 12 weeks old. They were purchased from Beijing Vital River Laboratory Animal Technology Co., Ltd. Animal inclusion criteria: mice with patchy and traceless hair loss, mainly with back hair loss and head hair loss.\nGrouping and criteria: 14 C57BL/6J mice were enrolled in the groups, and 5 mice in the model group, 9 mice in the administration group (test sample). The overall situation of hair loss in the administration group was more serious than that in the model group.\nAdministration information: administration group: single dose: 80 mg/kg (based on active ingredient) twice a day for 23 d continuously; model group: equal doses of vehicle given. Method of administration: oral gavage.\nRecord of change rate of body weight and alopecia areata area: measured twice a week, weighed and observed with naked eyes on Monday and Thursday.\nSpleen size and weight: at the end of the test, the body weight of mice was weighed, and then the mice were subjected to gross anatomy, the spleen of the mice was observed and weighed to calculate the spleen/body weight ratio of mice."}, "[3]": {"test_system": "Balb/c mice", "assay": "DNCB-induced atopic dermatitis model in mice, oral gavage", "conditions": "50 mg/kg twice a day oral gavage, vs model group", "procedure": "Drug preparation: appropriate amount of powder of sample for test was weighed accurately and put in a sample preparation tube. Purified water was added and sonication was performed until the sample was completely dissolved, and a concentration of 5 mg/ml (based on active ingredient) was prepared, and it was administered within 15 minutes after preparation.\nExperimental animals: Balb/c mice were purchased from Sichuan Academy of Traditional Chinese Medicine, 27 mice in total.\nGrouping: Balb/c mice (27 mice in total) were randomly divided into three groups, 9 mice in each group, which were blank group, model group and administration group respectively.\nModeling: 300 μl of 1% DNCB was applied to the abdomen of mice in the model group and administration group, and 0.5% DNCB was applied to the ears every other day after 7 d, and lasted for 31 days.\nAdministration: administration was carried out after 12 days of modeling. Administration group: dosage and frequency of administration: 50 mg/kg (based on active ingredient), twice a day. Model group: the same dose of vehicle was given. The administration cycle was 3 weeks (12 d-31 d). The method of administration: oral gavage.\n• (1) General observation: ear thickness and spleen/body weight ratio. At the end point of the test, the body weight of mice was weighed, and the left and right ear thickness (mm) of mice was measured, and then the mice were subjected to gross anatomy, and the spleen of mice was weighed to calculate the spleen/body weight ratio of mice. • (2) Serum: IgE. At the end point of the test, blood was collected from the orbit of mice, and the total IgE in the serum of mice was detected (ELISA method). • (3) Histopathology: HE staining of the ear (to measure ear epidermal thickness) and toluidine blue staining (to measure the number of mast cells in the ear epidermis).\nHE staining of ears: the fixed mouse ear tissue was dehydrated by automatic dehydrator and embedded, and then sliced. After dewaxing the slices to water, hematoxylin staining was performed until blue appeared; after elution, eosin staining was performed for sealing, and finally microscopy and image acquisition were carried out.\nThe above specimens were subjected to the procedures of dehydration, trimming, embedding, slicing, staining, sealing, and other procedures, and finally microscopy and image acquisition were carried out."}, "[4]": {"conditions": "end point, vs model group, p<0.05"}},
  "data": [
    {"smiles": "C=CC(=O)N(C)c1cc(Nc2ncc(Cl)c(NCCCNC(=O)c3ccc(C#N)cc3)n2)ccc1F", "note": "[test sample, N-(3-((5-chloro-2-((4-fluoro-3-(N-methylacrylamido)phenyl)amino)-4-pyrimidinyl)amino)propyl)-4-cyanobenzamide]", "values": [
      {"measurement": "weight of spleen in normal animals", "setting": "[1]", "result": "does not reduce the weight of spleen"},
      {"measurement": "spleen weight", "setting": "[2]; [4]", "result": "significantly lower"},
      {"measurement": "spleen/body weight ratio", "setting": "[2]; [4]", "result": "significantly lower"},
      {"measurement": "alopecia areata area", "setting": "[2]; better than model group (vehicle), p<0.01", "result": "significantly ameliorated"},
      {"measurement": "spleen/body weight ratio", "setting": "[3]; 3 weeks (12 d-31 d), end point, # p<0.05", "result": "significantly reduced"},
      {"measurement": "ear epidermal thickness", "setting": "[3]; 3 weeks, HE staining, # p<0.05", "result": "significantly decreased"},
      {"measurement": "serum IgE level", "setting": "[3]; 3 weeks, end point, ELISA, ## p<0.01", "result": "significantly decreased"},
      {"measurement": "ear thickness (including the left ear and the right ear)", "setting": "[3]; 3 weeks, end point, # p<0.05", "result": "significantly reduced"},
      {"measurement": "number of mast cells in ear epidermis", "setting": "[3]; 3 weeks, toluidine blue staining, # p<0.05", "result": "significantly decreased"}
    ]}
  ]
}
